Earlier results on one molecule are cited in patent US20200022949A1, “COMPOSITION AND METHOD FOR THE ALLEVIATION OF EFFECTS OF ALCOHOL CONSUMPTION” (Detoxicated Inc., priority 2018, published 2020).

The subject of the series is non-alcoholic fatty liver disease. The settings on record: patients with non-alcoholic fatty liver disease.

With `O=C1c2c(O)cc(O)cc2O[C@H](c2cc(O)c(O)c(O)c2)[C@H]1O` [DHM, dihydromyricetin], the “liver health (levels of liver enzymes and inflammatory cytokines)” value is given as “improve liver health”.
